Here are results for 1 compound from US20210322333A1, “Lignin-PLGA Biopolymers and Nanoparticles, and their Synthesis and Use” (Board of Supervisors of Louisiana State University and …, priority 2018, published 2021).

Each structure is given as a SMILES string. Marks after values point to notes of the source that are not given here.

Data set [1] relates to MDA-MB-231 breast cancer cells. Briefly: Cell survival assay (crystal violet, 5 days). Format: cell-based. Here is the method: Breast cancer cell line MDA-MB-231 was generously donated by the Burrow Lab at Tulane University School of Medicine. Cells were maintained in 5% CO2 at 37° C. and cultured in Dulbecco's modified Eagle's medium (DMEM) supplemented with 10% Hyclone Cosmic Calf Serum (HyClone Laboratories, Utah), 50 ng/mL insulin (Sigma-Aldrich, St. Louis, Mo., USA), and 1% MEMAA, NEAA, sodium pyruvate, and antibiotic-antimycotic (Gibco, Dublin, Ireland).
MDA-MB-231 breast cancer cells were seeded at a density of 5000 cells per well in cell culture medium on 96-well Corning Costar tissue culture plastic plates (Corning Life Sciences, Corning, N.Y., USA). After 24 hours in culture, cells were treated with vehicle control (DMSO), PLGA NPs (negative control), AL-PLGA NPs (negative control), free GDC-0623 (positive control), PLGA-GDC NPs, or AL-PLGA-GDC NPs. […] Following treatment, cells were cultured for 5 days and then stained with crystal violet. Crystal violet was eluted with 33% acetic acid, and absorbance at 570 nm was measured with a BioTek Cytation 3 plate reader (BioTek Instruments Inc, Winooski, Vt., USA). The experiment was carried out with both internal replicates (n=3) and biological replicates (n=3).

The conditions of data set [2]: cited from earlier work.

On to `O=C(NOCCO)c1ccc2cncn2c1Nc1ccc(I)cc1F` [GDC-0623], for which the “Mean Relative Cell Number (%)” value in data set [1] (1 nM, relative to DMSO, n = 3) is given as 96.1%; in data set [1] (10 nM GDC-0623 free or NP-entrapped, relative to DMSO (Table 6)), 87.8* %; in data set [1] (10 nM, relative to DMSO, n = 3) it was 83.9%; in data set [1] (100 nM GDC-0623, normalized versus free drug (Table 7, first group)), 100.0%; in data set [1] (100 nM GDC-0623 free or NP-entrapped, relative to DMSO (Table 6)) it was 51.4** %; in data set [1] (100 nM, relative to DMSO, n = 3), 46.8* %. For the same compound, the “Mean Relative Cell Number (%)” value was 31.3** % in data set [1] (1 μM, relative to DMSO, n = 3); 30.9** % in data set [1] (10 μM, relative to DMSO, n = 3); 100.0% in data set [1] (printed 100 nM GDC-0623, normalized versus free drug (Table 7, second group r12-r14)). Further, the “reduction in cell numbers” value in data set [1] (100 nM, compared to DMSO (vehicle)) amounted to 50%. Also, the pharmacokinetic characteristics result in data set [2] (Phase I trials) was “dose-proportional and time-dependent”. Further, in data set [2] (Phase I trials), the tolerability entry is “well-tolerated”. Besides, in data set [2] (daily oral dosing), the accumulation at steady-state entry is recorded as “no significant accumulation”.
